Laboratory results from the supplement of paper PMC10331698.
± gives the standard deviation of the averaged measurements.

Key:
Experiment in all cases: level (log10 ratio to DMSO vehicle control); higher = higher biomarker level / cell amount than vehicle control
[1] = compound: C=C(C)C(=O)OCC(F)(F)C(F)(F)C(F)(F)F [2,2,3,3,4,4,4-Heptafluorobutyl methacrylate]; conditions: in DMSO
Procedure: (§1)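 BioMAP Diversity Plus panel of 12 human primary cell co-culture systems (3C, 4H, LPS, SAg, BT, BF4T, BE3C, CASM3C, HDF3CGF, KF3CT, MyoF, Mphg). Compounds were added 1 h before stimulation and left for 24 h (MyoF 48 h; BT 72 h for soluble read-outs or 6 d for IgG). Biomarkers were read by ELISA, cytotoxicity by SRB, PBMC viability and proliferation by Alamar Blue. Each well value was divided by the mean of 8 DMSO control wells on the same plate and log10 transformed; duplicate blinded samples were tested at 4 concentrations.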

[2] = compound: O=C(CC(=O)C(F)(F)C(F)(F)C(F)(F)F)c1cccs1 [(Perfluorobutyryl)-2-thenoylmethane]; conditions: in DMSO
Procedure: as §1

[3] = compound: O=C(Cl)C(F)(F)C(F)(F)C(F)(F)C(=O)Cl [Hexafluoroglutaryl chloride]; conditions: in DMSO
Procedure: as §1

Tetrafluorosuccinic acid = compound: O=C(O)C(F)(F)C(F)(F)C(=O)O [Tetrafluorosuccinic acid]; conditions: in DMSO
Procedure: as §1

Perfluoropinacol = compound: OC(C(F)(F)F)(C(F)(F)F)C(O)(C(F)(F)F)C(F)(F)F [Perfluoropinacol]; conditions: in DMSO
Procedure: as §1

[4] = compound: OCC(F)(F)C(F)(F)C(F)(F)C(F)(F)C(F)(F)C(F)(F)F [6:1 Fluorotelomer alcohol]; conditions: in DMSO
Procedure: as §1

[5] = compound: OCCC(F)(F)C(F)(F)C(F)(F)C(F)(F)C(F)(F)C(F)(F)C(F)(F)C(F)(F)F [8:2 Fluorotelomer alcohol]; conditions: 6700 nM; in DMSO
Procedure: as §1

[6] = compound: OCCCC(F)(F)C(F)(F)C(F)(F)C(F)(F)C(F)(F)C(F)(F)C(F)(F)C(F)(F)F [3-(Perfluorooctyl)propanol]; conditions: 6700 nM; in DMSO
Procedure: as §1

Test System | level (log10) ([1]; 6700 nM) | level (log10) ([1]; 20000 nM) | level (log10) ([1]; 60000 nM) | level (log10) ([2]; 6700 nM) | level (log10) ([2]; 20000 nM) | level (log10) ([3]; 6700 nM) | level (log10) ([3]; 20000 nM) | level (log10) ([3]; 60000 nM) | level (log10) (Tetrafluorosuccinic acid; 6700 nM) | level (log10) (Tetrafluorosuccinic acid; 20000 nM) | level (log10) (Tetrafluorosuccinic acid; 60000 nM) | level (log10) (Perfluoropinacol; 6700 nM) | level (log10) (Perfluoropinacol; 20000 nM) | level (log10) ([4]; 6700 nM) | level (log10) ([4]; 20000 nM) | level (log10) ([4]; 60000 nM) | level (log10) [5] | level (log10) [6]
MyoF:SRB | -0.005 ± 0.016 | -0.0005 ± 0.0021 | 0.0035 ± 0.011 | -0.0225 ± 0.022 | -0.0395 ± 0.0035 | 0 ± 0.011 | 0.003 ± 0.0028 | -0.003 ± 0.018 | -0.0035 ± 0.0035 | -0.0135 ± 0.0021 | -0.01 ± 0.0014 | -0.012 | -0.0445 ± 0.0021 | 0.003 ± 0.02 | 0.0015 ± 0.016 | -0.089 ± 0.13 | -0.0005 ± 0.015 | -0.017 ± 0.0014
lMphg:CCL3/MIP-1alpha | -0.0095 ± 0.0092 | -0.0355 ± 0.044 | -0.0065 ± 0.012 | 0.0225 ± 0.029 | 0.012 ± 0.057 | 0.001 ± 0.069 | 0.012 ± 0.034 | 0.0145 ± 0.073 | -0.0145 ± 0.025 | -0.0145 ± 0.00071 | -0.001 ± 0.023 | 0.116 ± 0.047 | 0.116 ± 0.062 | 0.009 ± 0.017 | -0.0095 ± 0.036 | 0.0235 ± 0.083 | 0.079 ± 0.011 | -0.018 ± 0.0014
MyoF:Collagen III | 0.0075 ± 0.0021 | 0 ± 0.0014 | 0.0085 ± 0.0078 | -0.059 ± 0.018 | -0.141 ± 0.0078 | -0.0115 ± 0.0078 | -0.004 ± 0.035 | -0.003 ± 0.021 | -0.013 ± 0.016 | -0.0205 ± 0.005 | -0.016 ± 0.0099 | -0.0405 ± 0.011 | -0.136 ± 0.0014 | -0.005 | -0.0015 ± 0.005 | 0.0105 ± 0.005 | -0.0205 ± 0.021 | -0.0205 ± 0.00071
MyoF:Decorin | 0.018 ± 0.014 | 0.0075 ± 0.005 | 0.022 ± 0.0014 | 0.0045 ± 0.011 | 0.0285 ± 0.022 | -0.014 ± 0.016 | -0.0095 ± 0.026 | -0.006 ± 0.0099 | -0.0055 ± 0.0021 | -0.006 ± 0.0057 | 0.014 ± 0.027 | -0.041 ± 0.024 | -0.034 ± 0.025 | 0.004 ± 0.0071 | 0.0075 ± 0.0092 | 0.0005 ± 0.023 | -0.0195 ± 0.019 | 0.0395 ± 0.033
HDF3CGF:CCL2/MCP-1 | 0.0055 ± 0.012 | -0.001 ± 0.0057 | -0.0115 ± 0.018 | -0.005 ± 0.011 | -0.172 ± 0.014 | -0.036 ± 0.0099 | -0.0285 ± 0.037 | 0.0095 ± 0.00071 | -0.035 ± 0.0099 | -0.0415 ± 0.0064 | -0.0275 ± 0.012 | 0.0595 ± 0.0064 | 0.09 ± 0.0085 | -0.014 ± 0.028 | -0.013 ± 0.057 | -0.044 ± 0.082 | -0.0175 ± 0.032 | -0.284 ± 0.03
3C:CD62E/E-Selectin | -0.005 ± 0.011 | -0.014 ± 0.0042 | -0.0015 ± 0.013 | -0.0365 ± 0.036 | -0.019 ± 0.0014 | -0.0315 ± 0.049 | -0.02 ± 0.038 | -0.0025 ± 0.012 | -0.0015 ± 0.016 | -0.0155 ± 0.0064 | -0.01 ± 0.0099 | -0.007 ± 0.013 | -0.0605 ± 0.03 | -0.001 ± 0.0099 | -0.011 ± 0.0085 | 0.0125 ± 0.0078 | -0.016 ± 0.0099 | -0.024 ± 0.0099
HDF3CGF:CD106/VCAM-1 | -0.023 ± 0.0042 | -0.017 ± 0.03 | -0.07 ± 0.028 | -0.0405 ± 0.018 | 0.025 ± 0.0042 | -0.013 ± 0.0085 | 0.0205 ± 0.049 | -0.041 ± 0.014 | 0.003 ± 0.027 | -0.029 ± 0.037 | -0.033 ± 0.045 | -0.089 ± 0.037 | -0.228 ± 0.0014 | -0.0135 ± 0.013 | 0.004 ± 0.044 | -0.681 ± 0.28 | -0.0265 ± 0.015 | -0.244 ± 0.013
KF3CT:MMP-9 | -0.029 | -0.0115 ± 0.00071 | 0.0085 ± 0.0092 | -0.107 ± 0.027 | -0.122 ± 0.012 | -0.0515 ± 0.013 | -0.0255 ± 0.028 | -0.024 ± 0.03 | -0.0305 ± 0.018 | -0.024 ± 0.031 | -0.0085 ± 0.035 | 0.01 ± 0.018 | -0.0245 ± 0.029 | -0.018 ± 0.0028 | -0.0315 ± 0.0021 | 0.002 ± 0.0028 | -0.09 ± 0.027 | -0.053 ± 0.0085
KF3CT:CD54/ICAM-1 | 0.0015 ± 0.016 | -0.003 ± 0.016 | 0.0085 ± 0.005 | -0.0335 ± 0.00071 | -0.0115 ± 0.023 | -0.013 ± 0.0014 | -0.002 ± 0.0057 | -0.002 ± 0.0028 | 0.011 ± 0.0085 | 0.003 | 0.025 ± 0.0042 | 0.012 ± 0.0099 | 0.0185 ± 0.015 | 0.001 ± 0.0014 | -0.005 ± 0.0071 | 0.016 ± 0.013 | -0.0195 ± 0.0021 | -0.062 ± 0.024
